According to patent US5859056A, “Pharmaceutical composition for treating cardiovascular diseases containing 3-(2,2,2-trimethylhydrazinium)propionate and γ-butyrobetaine” (priority 1995, dated 1999):
Where two headings read alike, the source gives them in different places.

Legend:
[1] = system: hemodynamics of anesthetised cats; assay: effects on hemodynamics of anesthetised cats (Table 1); assay type: in vivo, cat
Procedure: The experiments were performed on male and female (2.9-3.8 kg) anaesthetized cats (urethane 200 mg/kg and chloralose 50 mg/kg, both i.p.).
The chest was opened in the experimental animals, which were artificially respirated, and blood pressure in the carotid artery as well as general aorta blood flow were measured on physiograph DMP-46 "Narco Bio-Systems" USA.

[2] = system: CaCl2-induced lethal arrhythmias in rats; assay: CaCl2-induced lethal arrhythmias in rats (Table 5); assay type: in vivo, albino rats; conditions: for Survive (number of animals) / Survive (percent): 5 observations
Procedure: These experiments were performed on male and female albino rats (190 to 230 g) anesthetized with urethane ([…], i.p.), and after 2% calcium chloride solution administration to animal foot vein ECG was registered in II standard lead.

[3] = system: CaCl2-induced lethal arrhythmias in mice; assay: CaCl2-induced lethal arrhythmias in mice (Table 4); assay type: in vivo, albino mice; conditions: for Survive (number of animals): 10 observations
Procedure: This experiment was performed on male and female conscious albino mice (19-26 g) administering to their tail vein a 2% (by weight) calcium chloride solution, animal protection against lethal arrhythmia being used as an effect criterion (Table 4).

[4] = system: isolated rabbit ear blood vessel; assay: adrenaline-induced isolated rabbit ear blood vessel spasms (Table 2); conditions: for Perfusion pressure, final data, max / Perfusion pressure, final data, min: after adrenaline 3.10^-7 M addition
[5] = system: albino mice; assay: in vivo; conditions: in words
Procedure: (§1) Acute toxicity was studied on male and female albino mice (19-26 g), 10 animals in a group. The substances were administered as a 10% solution orally or i.v. (with 0.004 ml/sec rate).

[6] = in vivo; conditions: mouse, in vivo
Procedure: as §1

[7] = system: ischemia- and reperfusion-induced heart rhythm disturbances in rats; assay: ischemia- and reperfusion-induced heart rhythm disturbances in rats, therapeutic regimen (Table 6); assay type: in vivo, Wistar rats; conditions: for Lethality (number of animals from total numb) / ST rise during occlusion / Ventricular fibrillation (number of animals from total numb) / Ventricular tachycardy (number of animals from total numb): 50 mg/kg total (25 injection + 25 infusion); for efficacy against ischaemia-reperfusion-induced damage and rhythm disturbances: therapeutic regimen, in words
Procedure: (§2) The experiments were carried out on Wistar rats (260-330 g). During phenobarbital anesthesia (50 mg/kg, i.p.) and artificial respiration their chest was opened and the left coronary artery was ligated with 6.0 Silk Ethicon thread which was pulled out through plastic pipe. Occlusion was made by pressing the plastic pipe to the heart surface, and ischaemia stage was controlled by ECG, fixing ischaemia-induced changes in ECG. Solutions of the substances or saline were i.v. injected in two regimens:
2) therapeutically--1.5 min after occlusion by administering 25 mg/kg in injection and 25 mg/kg infusively. Infusion was stopped 2 min after reperfusion.

[8] = system: carnitine biosynthesis; conditions: cited from earlier work; for mechanism of action: literature
[9] = system: rabbit ear blood vessel; assay: adrenaline-induced rabbit ear blood vessel spasm in the presence of L-nitro-arginine (Table 3); conditions: adrenaline 3.10^-7 M and L-NO2-Arg 10 mg/l
[10] = literature statements; cited from earlier work
[11] = system: ischemia and reperfusion-induced heart rhythm disturbances in rats; assay: ischemia and reperfusion-induced heart rhythm disturbances in rats, prophylactic regimen (Table 7); assay type: in vivo, Wistar rats; conditions: for Lethality (number of animals from total numb) / ST rise during occlusion / Ventricular fibrillation (number of animals from total numb) / Ventricular tachycardy (number of animals from total numb): 50 mg/kg (proph.), i.v. 30 min before occlusion; for efficacy against ischaemia-reperfusion-induced damage and rhythm disturbances: prophylactic regimen, in words
Procedure: as §2
1) prophylactically--30 min before occlusion by administration of 50 mg/kg,

[12] = cited from earlier work; for toxic effects: W. Linneweh, 1929

CC(=O)OCC[N+](C)(C)C [Ach, acetyl choline]
Blood pressure changes ([1]; 0.001 mg/kg i.v.): -35%
Heart rate changes ([1]; 0.001 mg/kg i.v.): -20%

C[N+](C)(C)CCCC(=O)[O-] [GBB, γ-butyrobetaine]
Protection against the control ([2]; 10 mg/kg p.o.): 20%
Survive (number of animals) ([2]; 10 mg/kg p.o.): 1
Survive (percent) ([2]; 10 mg/kg p.o.): 20%
Protection against the control ([2]; 30 mg/kg p.o.): 32%
Survive (number of animals) ([2]; 30 mg/kg p.o.): 1
Survive (percent) ([2]; 30 mg/kg p.o.): 20%
Protection against the control ([3]; 8 mg/kg p.o.): 10%
Survive (number of animals) ([3]; 8 mg/kg p.o.): 2
Protection against the control ([3]; 20 mg/kg p.o.): 0%
Survive (number of animals) ([3]; 20 mg/kg p.o.): 1
Protection against the control ([3]; 30 mg/kg p.o.): 20%
Survive (number of animals) ([3]; 30 mg/kg p.o.): 3
Protection against the control ([3]; 50 mg/kg p.o.): 40%
Survive (number of animals) ([3]; 50 mg/kg p.o.): 5
Protection against the control ([3]; 100 mg/kg p.o.): 30%
Survive (number of animals) ([3]; 100 mg/kg p.o.): 4
protection from lethal arrhythmia (cases) ([3]; 50 and 100 mg/kg of γ-butyrobetaine): 30-40%
Perfusion pressure, final data, max ([4]; 0.3 μM): 124 mm Hg
Perfusion pressure, final data, min ([4]; 0.3 μM): 76 mm Hg
Perfusion pressure, final data, max ([4]; 1.0 μM): 125 mm Hg
Perfusion pressure, final data, min ([4]; 1.0 μM): 80 mm Hg
Perfusion pressure, final data, max ([4]; 2.0 μM): 125 mm Hg
Perfusion pressure, final data, min ([4]; 2.0 μM): 78 mm Hg
potency on adrenaline-induced vessel spasms relative to 3-(2,2,2-trimethylhydrazinium)propionate ([4]; isolated rabbit ear): 2-3 times
acute toxicity [5]: practically nontoxic agent
LD50 ([6]; iv): 1860 mg/kg
LD50 ([6]; po): > 4500 mg/kg
Lethality (number of animals from total numb) [7]: 1/10
ST rise during occlusion [7]: 0.23 ± 0.05 mV
Ventricular fibrillation (number of animals from total numb) [7]: 4/10
Ventricular tachycardy (number of animals from total numb) [7]: 7/10
efficacy against ischaemia-reperfusion-induced damage and rhythm disturbances [7]: effectively protects myocardium from ischaemia-reperfusion-induced myocardium damages and ventricular fibrillations which are partially resumed after infusion termination
level of carnitine biosynthesis in the organism ([8]; background statement): increases the level of carnitine biosynthesis in the organism
Blood flow rate changes ([1]; 5.0 mg/kg i.v.): 6%
Blood flow rate changes ([1]; 10.0 mg/kg i.v.): 12%
Perfusion pressure, final data, max ([9]; 0.3 μM): 168 mm Hg
Perfusion pressure, final data, min ([9]; 0.3 μM): 105 mm Hg
Perfusion pressure, final data, max ([9]; 1.0 μM): 165 mm Hg
Perfusion pressure, final data, min ([9]; 1.0 μM): 100 mm Hg
Perfusion pressure, final data, max ([9]; 2.0 μM): 163 mm Hg
Perfusion pressure, final data, min ([9]; 2.0 μM): 100 mm Hg
pharmacological action [10]: pharmacologically inert substance
Lethality (number of animals from total numb) [11]: 3/8
ST rise during occlusion [11]: 0.36 mV
Ventricular fibrillation (number of animals from total numb) [11]: 6/8
Ventricular tachycardy (number of animals from total numb) [11]: 8/8
efficacy against ischaemia-reperfusion-induced damage and rhythm disturbances [11]: ineffective
toxic effects ([12]; listed as γ-Butyrobetaine): accelerates respiration, causes salivation and lacrimation, pupil dilation, vasoconstriction and heart stop in diastole
toxic effects ([12]; listed as γ-butyrobetaine): heart stop in diastole
LD50 ([12]; s.c.): > 7000 mg/kg

C=C[C@H]1C[N@@]2CC[C@H]1C[C@@H]2[C@@H](O)c1ccnc2ccc(OC)cc12 [Quinidine]
Protection against the control ([2]; 3 mg/kg p.o.): 25%
Survive (number of animals) ([2]; 3 mg/kg p.o.): 1
Survive (percent) ([2]; 3 mg/kg p.o.): 20%
Protection against the control ([2]; 10 mg/kg p.o.): 46%
Survive (number of animals) ([2]; 10 mg/kg p.o.): 2
Survive (percent) ([2]; 10 mg/kg p.o.): 40%
Protection against the control ([3]; 10 mg/kg p.o.): 10%
Survive (number of animals) ([3]; 10 mg/kg p.o.): 2
Protection against the control ([3]; 30 mg/kg p.o.): 30%
Survive (number of animals) ([3]; 30 mg/kg p.o.): 4
Protection against the control ([3]; 50 mg/kg p.o.): 50%
Survive (number of animals) ([3]; 50 mg/kg p.o.): 6

C[N+](C)(C)NCCC(=O)[O-] [M, 3-(2,2,2-Trimethylhydrazinium)propionate]
Protection against the control ([2]; 10 mg/kg p.o.): 15%
Survive (number of animals) ([2]; 10 mg/kg p.o.): 1
Survive (percent) ([2]; 10 mg/kg p.o.): 20%
Protection against the control ([2]; 20 mg/kg p.o.): 23%
Survive (number of animals) ([2]; 20 mg/kg p.o.): 1
Survive (percent) ([2]; 20 mg/kg p.o.): 20%
Protection against the control ([2]; 30 mg/kg p.o.): 25%
Survive (number of animals) ([2]; 30 mg/kg p.o.): 1
Survive (percent) ([2]; 30 mg/kg p.o.): 20%
Protection against the control ([3]; 8 mg/kg p.o.): 10%
Survive (number of animals) ([3]; 8 mg/kg p.o.): 2
Protection against the control ([3]; 20 mg/kg p.o.): 20%
Survive (number of animals) ([3]; 20 mg/kg p.o.): 3
Protection against the control ([3]; 30 mg/kg p.o.): 30%
Survive (number of animals) ([3]; 30 mg/kg p.o.): 4
Protection against the control ([3]; 50 mg/kg p.o.): 30%
Survive (number of animals) ([3]; 50 mg/kg p.o.): 4
Protection against the control ([3]; 100 mg/kg p.o.): 40%
Survive (number of animals) ([3]; 100 mg/kg p.o.): 5
Perfusion pressure, final data, max ([4]; 0.3 μM): 125 mm Hg
Perfusion pressure, final data, min ([4]; 0.3 μM): 80 mm Hg
Perfusion pressure, final data, max ([4]; 1.0 μM): 123 mm Hg
Perfusion pressure, final data, min ([4]; 1.0 μM): 77 mm Hg
Perfusion pressure, final data, max ([4]; 2.0 μM): 126 mm Hg
Perfusion pressure, final data, min ([4]; 2.0 μM): 80 mm Hg
Lethality (number of animals from total numb) [7]: 3/10
ST rise during occlusion [7]: 0.4 ± 0.1 mV
Ventricular fibrillation (number of animals from total numb) [7]: 8/10
Ventricular tachycardy (number of animals from total numb) [7]: 10/10
efficacy against ischaemia-reperfusion-induced damage and rhythm disturbances [7]: relatively low
mechanism of action [8]: limitation of carnitine biosynthesis rate and the related long-chain fatty acid Transport limitation through mitochondria membranes
mechanism of action ([8]; listed as 3-(2,2,2-trimethylhydrazinium)-propionate (THP)): γ-butyrobetaine hydroxylase inhibitor
Blood flow rate changes ([1]; 5.0 mg/kg i.v.): +5%
Blood flow rate changes ([1]; 10.0 mg/kg i.v.): +8%
Perfusion pressure, final data, max ([9]; 0.3 μM): 165 mm Hg
Perfusion pressure, final data, min ([9]; 0.3 μM): 102 mm Hg
Perfusion pressure, final data, max ([9]; 1.0 μM): 163 mm Hg
Perfusion pressure, final data, min ([9]; 1.0 μM): 100 mm Hg
Perfusion pressure, final data, max ([9]; 2.0 μM): 165 mm Hg
Perfusion pressure, final data, min ([9]; 2.0 μM): 100 mm Hg
Lethality (number of animals from total numb) [11]: 2/8
ST rise during occlusion [11]: 0.31 mV
Ventricular fibrillation (number of animals from total numb) [11]: 5/8
Ventricular tachycardy (number of animals from total numb) [11]: 7/8
efficacy against ischaemia-reperfusion-induced damage and rhythm disturbances [11]: markedly better in the case of prophylaxis, i.e., 30 min. before occlusion when it protects myocardium from ischemia increase during occlusion

CCOC(=O)Nc1ccc2c(c1)N(C(=O)CCN1CCOCC1)c1ccccc1S2 [Etmozine]
Protection against the control ([2]; 3 mg/kg p.o.): 20%
Survive (number of animals) ([2]; 3 mg/kg p.o.): 1
Survive (percent) ([2]; 3 mg/kg p.o.): 10%
Protection against the control ([2]; 10 mg/kg p.o.): 46%
Survive (number of animals) ([2]; 10 mg/kg p.o.): 2
Survive (percent) ([2]; 10 mg/kg p.o.): 40%
Protection against the control ([3]; 5 mg/kg p.o.): 20%
Survive (number of animals) ([3]; 5 mg/kg p.o.): 3
Protection against the control ([3]; 10 mg/kg p.o.): 40%
Survive (number of animals) ([3]; 10 mg/kg p.o.): 5
Protection against the control ([3]; 30 mg/kg p.o.): 40%
Survive (number of animals) ([3]; 30 mg/kg p.o.): 5

COC(=O)CCC[N+](C)(C)C [methyl ester]
pharmacological action [10]: possesses cholinergic properties
